The NIST ThermoML archive (doi:10.1021/acs.jced.8b00160)

Key:
[1] = wn = mass fraction of the nth substance listed; details: 100 kPa, Liquid, Vibrating tube method
[2] = refractive index (Na D-line) (dimensionless); wn = mass fraction of the nth substance listed; details: 100 kPa, Liquid, Standard Abbe refractometry
[3] = refractive index (Na D-line) (dimensionless); details: 100 kPa, Liquid, Standard Abbe refractometry

CC(C)O [propan-2-ol] + O
Details	mass density, 298.15 K [kg/m3]	mass density, 308.15 K [kg/m3]	mass density, 318.15 K [kg/m3]	refractive index, 298.15 K	refractive index, 308.15 K	refractive index, 318.15 K
[1], w1 = 0.1	979.9	976.9	973.7	–	–	–
[1], w1 = 0.2	966.6	958.7	954.8	–	–	–
[1], w1 = 0.3	946	941.9	934.4	–	–	–
[1], w1 = 0.4	925.7	916.8	911.5	–	–	–
[1], w1 = 0.5	901.7	896.2	887.6	–	–	–
[1], w1 = 0.6	879	871.6	862.4	–	–	–
[2], w1 = 0.1	–	–	–	1.3418	1.3372	1.3356
[2], w1 = 0.2	–	–	–	1.3506	1.3475	1.3447
[2], w1 = 0.3	–	–	–	1.3573	1.3559	1.3531
[2], w1 = 0.4	–	–	–	1.3629	1.3623	1.3596
[2], w1 = 0.5	–	–	–	1.367	1.3668	1.3643
[2], w1 = 0.6	–	–	–	1.3705	1.3694	1.3679

O=P([O-])([O-])O.[K+].[K+] [dipotassium hydrogen phosphate] + O
298.15 K
Details	mass density, [1] [kg/m3]	refractive index, [2]
w1 = 0.02	1014.3	1.336
w1 = 0.05	1040.9	1.3401
w1 = 0.1	1086.7	1.3478
w1 = 0.15	1134	1.3551
w1 = 0.2	1183.1	1.3626
w1 = 0.25	1234.3	1.3697
w1 = 0.3	1287.3	1.3774

O [water]
[3]
Details	refractive index
298.15 K	1.3324
308.15 K	1.3302
318.15 K	1.3298

O=P([O-])([O-])[O-].[K+].[K+].[K+] [tripotassium phosphate] + O
Details	mass density, 298.15 K [kg/m3]	mass density, 308.15 K [kg/m3]	mass density, 318.15 K [kg/m3]	refractive index, 298.15 K	refractive index, 308.15 K	refractive index, 318.15 K
[1], w1 = 0.02	1015.8	1011.9	1008.3	–	–	–
[1], w1 = 0.05	1048.6	1045	1040.4	–	–	–
[1], w1 = 0.1	1106.7	1102.7	1100.3	–	–	–
[1], w1 = 0.15	1176.8	1172.6	1171.1	–	–	–
[1], w1 = 0.2	1203.4	1199.8	1194.9	–	–	–
[1], w1 = 0.25	1226.9	1223.5	1218	–	–	–
[1], w1 = 0.3	1241.7	1237.1	1231.8	–	–	–
[2], w1 = 0.02	–	–	–	1.3356	1.3346	1.3337
[2], w1 = 0.05	–	–	–	1.3413	1.3402	1.3386
[2], w1 = 0.1	–	–	–	1.3537	1.3512	1.3488
[2], w1 = 0.15	–	–	–	1.3651	1.3632	1.3606
[2], w1 = 0.2	–	–	–	1.3792	1.3768	1.3736
[2], w1 = 0.25	–	–	–	1.3962	1.3928	1.3885
[2], w1 = 0.3	–	–	–	1.418	1.4109	1.4029
